# Where two headings read alike, the source gives them in different places.
# Columns and labels:
# AKT1 = AKT1 (Homo sapiens (Human), UniProt P31749); assay: Reaction Biology HotSpot kinase assay; format: biochemical; conditions: 500 nM compound; for inhibition at 0.5 µM: read-out: Percentage kinase inhibition AKT1
# Procedure, shortened: (§1)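 HotSpot 33P transfer format. Enzyme, substrate and 500 nM test compound sit together for 20 min, then labelled and unlabelled ATP totalling 100 μM are added and phosphorylation proceeds for 2 h at room temperature. Products are captured on P81 cellulose paper, and activity is expressed relative to DMSO.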
# ALK = ALK (Homo sapiens (Human), UniProt Q9UM73); assay: Reaction Biology HotSpot kinase assay; format: biochemical; conditions: 500 nM compound; for inhibition at 0.5 µM: read-out: Percentage kinase inhibition ALK
# Procedure, shortened: (§2)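 Read-out is percent remaining kinase activity relative to a DMSO vehicle reaction. Compound was tested once at 500 nM and preincubated 20 min with kinase and substrate, then the reaction ran 2 h at room temperature with 100 μM final ATP spiked with [γ-33P]ATP before spotting onto P81 ion-exchange paper.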
# AXL = AXL (Homo sapiens (Human), UniProt P30530); assay: Reaction Biology HotSpot kinase assay; format: biochemical; conditions: 500 nM compound; for inhibition at 0.5 µM: read-out: Percentage kinase inhibition AXL
# Procedure, shortened: (§3)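 Compounds were screened at one concentration, 500 nM, in a radiometric kinase reaction. After a 20-minute preincubation with enzyme and substrate in pH 7.5 HEPES buffer (1% DMSO), the mixture received 100 μM ATP containing [γ-33P]ATP and was left 2 h at room temperature.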
# BRAF = BRAF (Homo sapiens (Human), UniProt P15056); assay: Reaction Biology HotSpot kinase assay; format: biochemical; conditions: 500 nM compound; for inhibition at 0.5 µM: read-out: Percentage kinase inhibition BRAF
# Procedure, shortened: as §3
# BTK = BTK (Homo sapiens (Human), UniProt Q06187); assay: Reaction Biology HotSpot kinase assay; format: biochemical; conditions: 500 nM compound; for inhibition at 0.5 µM: read-out: Percentage kinase inhibition BTK
# Procedure, shortened: as §2
# EGFR = EGFR (Homo sapiens (Human), UniProt P00533); assay: Reaction Biology HotSpot kinase assay; format: biochemical; conditions: 500 nM compound; for inhibition at 0.5 µM: read-out: Percentage kinase inhibition EGFR
# Procedure, shortened: as §2
# EPHA5 = EPHA5 (Homo sapiens (Human), UniProt P54756); assay: Reaction Biology HotSpot kinase assay; format: biochemical; conditions: 500 nM compound; for inhibition at 0.5 µM: read-out: Percentage kinase inhibition EPHA5
# Procedure, shortened: as §2
# EPHB2 = EPHB2 (Homo sapiens (Human), UniProt P29323); assay: Reaction Biology HotSpot kinase assay; format: biochemical; conditions: 500 nM compound; for inhibition at 0.5 µM: read-out: Percentage kinase inhibition EPHB2
# Procedure, shortened: as §2
# ERBB2/HER2 = ERBB2/HER2 (Homo sapiens (Human), UniProt P04626); assay: Reaction Biology HotSpot kinase assay; format: biochemical; conditions: 500 nM compound; for inhibition at 0.5 µM: read-out: Percentage kinase inhibition ERBB2/HER2
# Procedure, shortened: as §2
# FGFR1 = FGFR1 (Homo sapiens (Human), UniProt P11362); assay: Reaction Biology HotSpot kinase assay; format: biochemical; conditions: 500 nM compound; for inhibition at 0.5 µM: read-out: Percentage kinase inhibition FGFR1
# Procedure, shortened: as §1
# FGR = FGR (Homo sapiens (Human), UniProt P09769); assay: Reaction Biology HotSpot kinase assay; format: biochemical; conditions: 500 nM compound; for inhibition at 0.5 µM: read-out: Percentage kinase inhibition FGR
# Procedure, shortened: as §2
# FLT1/VEGFR1 = FLT1/VEGFR1 (Homo sapiens (Human), UniProt P17948); assay: Reaction Biology HotSpot kinase assay; format: biochemical; conditions: 500 nM compound; for inhibition at 0.5 µM: read-out: Percentage kinase inhibition FLT1/VEGFR1
# Procedure, shortened: as §2
# FLT3 = FLT3 (Homo sapiens (Human), UniProt P36888); assay: Reaction Biology HotSpot kinase assay; format: biochemical; conditions: for inhibition at 0.5 µM: read-out: % inhibition of FLT3 activity
# Procedure, shortened: as §1
# FLT4/VEGFR3 = FLT4/VEGFR3 (Homo sapiens (Human), UniProt P35916); assay: Reaction Biology HotSpot kinase assay; format: biochemical; conditions: 500 nM compound; for inhibition at 0.5 µM: read-out: Percentage kinase inhibition FLT4/VEGFR3
# Procedure, shortened: as §2
# KDR/VEGFR2 = KDR/VEGFR2 (Homo sapiens (Human), UniProt P35968); assay: Reaction Biology HotSpot kinase assay; format: biochemical; conditions: 500 nM compound; for inhibition at 0.5 µM: read-out: Percentage kinase inhibition KDR/VEGFR2
# Procedure, shortened: as §2
# PDGFRa = PDGFRa (Homo sapiens (Human), UniProt P16234); assay: Reaction Biology HotSpot kinase assay; format: biochemical; conditions: 500 nM compound; for inhibition at 0.5 µM: read-out: Percentage kinase inhibition PDGFRa
# Procedure, shortened: as §2
# PKCa = PKCa (Homo sapiens (Human), UniProt P17252); assay: Reaction Biology HotSpot kinase assay; format: biochemical; conditions: 500 nM compound; for inhibition at 0.5 µM: read-out: Percentage kinase inhibition PKCa
# Procedure, shortened: as §2
# ROS/ROS1 = ROS/ROS1 (Homo sapiens (Human), UniProt P08922); assay: Reaction Biology HotSpot kinase assay; format: biochemical; conditions: 500 nM compound; for inhibition at 0.5 µM: read-out: Percentage kinase inhibition ROS/ROS1
# Procedure, shortened: as §2
# TIE2/TEK = TIE2/TEK (Homo sapiens (Human), UniProt Q02763); assay: Reaction Biology HotSpot kinase assay; format: biochemical; conditions: 500 nM compound; for inhibition at 0.5 µM: read-out: Percentage kinase inhibition TIE2/TEK
# Procedure, shortened: as §2
# TRKB = TRKB (Homo sapiens (Human), UniProt Q16620); assay: Reaction Biology HotSpot kinase assay; format: biochemical; conditions: 500 nM compound; for inhibition at 0.5 µM: read-out: Percentage kinase inhibition TRKB
# Procedure, shortened: as §2
# YES/YES1 = YES/YES1 (Homo sapiens (Human), UniProt P07947); assay: Reaction Biology HotSpot kinase assay; format: biochemical; conditions: 500 nM compound; for inhibition at 0.5 µM: read-out: Percentage kinase inhibition YES/YES1
# Procedure, shortened: as §2
# c-MER = c-MER (Homo sapiens (Human), UniProt Q12866); assay: Reaction Biology HotSpot kinase assay; format: biochemical; conditions: 500 nM compound; for inhibition at 0.5 µM: read-out: Percentage kinase inhibition c-MER
# Procedure, shortened: as §2
# c-Met = c-Met (Homo sapiens (Human), UniProt P08581); assay: Reaction Biology HotSpot kinase assay; format: biochemical; conditions: 500 nM compound; for inhibition at 0.5 µM: read-out: Percentage kinase inhibition c-Met
# Procedure, shortened: as §2
# MOLM14 = assay: IC50 determination (proliferation assay, CellTiter-Blue); format: cell-based
# Protocol: Cell lines were seeded into 96-well plates the afternoon prior to treatment. Approximately 18 hours later, compounds were diluted in dimethyl sulfoxide (DMSO) and added to cells. Plates were incubated for 72 hours and cells viability determined with CellTiter-Blue Cell Viability Assay (Promega, Madison, WI). Plates were read after 4 additional hours of incubation at 37° C. using plate reader (Bio-Tek, Winooski. VT). Data was analyzed and graphed using GraphPad Prism Software (Graphpad. La Jolla, CA). […]
# Sequence of TIE2/TEK (Q02763 23-1124): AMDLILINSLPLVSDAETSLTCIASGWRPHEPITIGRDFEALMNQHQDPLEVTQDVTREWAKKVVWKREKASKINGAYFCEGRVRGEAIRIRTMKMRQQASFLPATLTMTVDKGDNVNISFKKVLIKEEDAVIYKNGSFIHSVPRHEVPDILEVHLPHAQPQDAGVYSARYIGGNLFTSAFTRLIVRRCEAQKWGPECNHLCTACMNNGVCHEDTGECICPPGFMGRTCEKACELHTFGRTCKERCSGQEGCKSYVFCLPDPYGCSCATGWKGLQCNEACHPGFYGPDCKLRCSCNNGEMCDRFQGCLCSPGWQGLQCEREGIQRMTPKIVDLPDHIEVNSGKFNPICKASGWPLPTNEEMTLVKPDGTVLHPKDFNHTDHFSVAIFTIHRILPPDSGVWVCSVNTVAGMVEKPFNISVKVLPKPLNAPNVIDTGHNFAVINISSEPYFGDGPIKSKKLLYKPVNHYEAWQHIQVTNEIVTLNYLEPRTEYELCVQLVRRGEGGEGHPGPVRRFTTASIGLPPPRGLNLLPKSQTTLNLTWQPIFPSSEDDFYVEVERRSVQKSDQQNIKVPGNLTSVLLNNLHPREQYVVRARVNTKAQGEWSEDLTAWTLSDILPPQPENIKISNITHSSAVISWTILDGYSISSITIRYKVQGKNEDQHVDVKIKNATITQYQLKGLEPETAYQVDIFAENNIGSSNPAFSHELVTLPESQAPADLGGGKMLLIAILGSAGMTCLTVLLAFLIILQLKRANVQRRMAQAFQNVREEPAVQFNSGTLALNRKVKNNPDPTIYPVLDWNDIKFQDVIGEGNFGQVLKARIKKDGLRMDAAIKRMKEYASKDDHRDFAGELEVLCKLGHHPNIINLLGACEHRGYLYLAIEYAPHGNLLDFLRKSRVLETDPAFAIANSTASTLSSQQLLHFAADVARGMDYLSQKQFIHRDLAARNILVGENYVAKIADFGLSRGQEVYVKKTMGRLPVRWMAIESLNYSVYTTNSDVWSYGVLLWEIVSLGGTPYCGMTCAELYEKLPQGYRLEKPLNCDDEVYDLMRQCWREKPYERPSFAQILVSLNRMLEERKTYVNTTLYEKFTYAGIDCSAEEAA
# Sequence of FLT1/VEGFR1 (P17948 27-1338): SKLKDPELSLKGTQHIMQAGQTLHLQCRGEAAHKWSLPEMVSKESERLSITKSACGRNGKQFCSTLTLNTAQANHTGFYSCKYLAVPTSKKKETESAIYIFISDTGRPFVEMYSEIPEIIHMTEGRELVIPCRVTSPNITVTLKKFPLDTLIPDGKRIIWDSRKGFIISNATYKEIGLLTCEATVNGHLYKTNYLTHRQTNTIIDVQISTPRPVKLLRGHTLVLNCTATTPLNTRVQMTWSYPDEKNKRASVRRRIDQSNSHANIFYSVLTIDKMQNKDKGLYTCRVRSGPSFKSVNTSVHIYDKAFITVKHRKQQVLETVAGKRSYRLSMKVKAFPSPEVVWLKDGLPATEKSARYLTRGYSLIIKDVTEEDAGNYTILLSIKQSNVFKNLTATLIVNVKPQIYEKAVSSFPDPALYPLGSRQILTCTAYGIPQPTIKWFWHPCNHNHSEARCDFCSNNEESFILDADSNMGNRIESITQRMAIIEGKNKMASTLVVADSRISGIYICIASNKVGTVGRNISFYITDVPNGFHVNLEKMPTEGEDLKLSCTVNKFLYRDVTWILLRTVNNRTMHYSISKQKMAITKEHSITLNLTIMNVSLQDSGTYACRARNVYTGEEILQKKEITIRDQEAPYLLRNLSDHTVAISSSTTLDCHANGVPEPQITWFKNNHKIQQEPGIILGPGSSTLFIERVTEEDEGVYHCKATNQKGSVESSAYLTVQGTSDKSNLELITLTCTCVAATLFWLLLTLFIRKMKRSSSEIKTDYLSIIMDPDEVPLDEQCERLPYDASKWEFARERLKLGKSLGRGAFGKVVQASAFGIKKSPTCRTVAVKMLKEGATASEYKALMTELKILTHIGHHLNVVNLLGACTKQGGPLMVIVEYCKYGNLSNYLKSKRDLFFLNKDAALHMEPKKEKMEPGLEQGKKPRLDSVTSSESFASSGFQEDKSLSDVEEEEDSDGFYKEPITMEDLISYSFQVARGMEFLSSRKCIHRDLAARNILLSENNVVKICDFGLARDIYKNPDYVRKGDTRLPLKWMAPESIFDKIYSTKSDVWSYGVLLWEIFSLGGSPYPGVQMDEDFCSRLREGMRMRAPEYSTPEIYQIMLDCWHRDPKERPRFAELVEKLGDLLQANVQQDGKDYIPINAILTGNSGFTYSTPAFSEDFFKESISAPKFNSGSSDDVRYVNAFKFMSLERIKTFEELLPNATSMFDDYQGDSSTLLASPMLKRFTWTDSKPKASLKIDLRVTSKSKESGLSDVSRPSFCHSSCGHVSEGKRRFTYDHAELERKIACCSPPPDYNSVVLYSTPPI
# Sequence of BRAF (P15056 whole entry): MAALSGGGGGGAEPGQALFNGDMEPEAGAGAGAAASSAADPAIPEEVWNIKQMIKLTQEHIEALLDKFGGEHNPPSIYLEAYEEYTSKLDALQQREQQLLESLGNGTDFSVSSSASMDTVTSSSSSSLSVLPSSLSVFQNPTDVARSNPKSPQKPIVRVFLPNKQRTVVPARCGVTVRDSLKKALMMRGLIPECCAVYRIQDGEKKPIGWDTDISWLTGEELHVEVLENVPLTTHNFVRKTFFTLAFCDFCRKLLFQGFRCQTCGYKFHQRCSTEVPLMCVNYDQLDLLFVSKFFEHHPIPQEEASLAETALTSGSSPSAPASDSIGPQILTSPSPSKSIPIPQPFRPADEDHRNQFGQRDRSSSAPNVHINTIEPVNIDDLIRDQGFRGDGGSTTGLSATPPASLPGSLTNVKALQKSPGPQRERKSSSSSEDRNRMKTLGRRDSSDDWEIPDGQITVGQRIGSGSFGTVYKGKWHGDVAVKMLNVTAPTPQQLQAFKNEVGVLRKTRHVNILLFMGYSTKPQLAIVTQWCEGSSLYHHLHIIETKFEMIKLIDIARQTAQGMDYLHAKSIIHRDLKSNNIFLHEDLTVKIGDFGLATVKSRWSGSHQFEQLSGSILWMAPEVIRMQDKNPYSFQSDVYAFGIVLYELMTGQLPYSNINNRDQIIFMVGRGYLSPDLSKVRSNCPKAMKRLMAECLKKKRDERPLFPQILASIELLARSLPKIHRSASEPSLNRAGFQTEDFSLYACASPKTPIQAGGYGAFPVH
# Sequence of AKT1 (P31749 whole entry): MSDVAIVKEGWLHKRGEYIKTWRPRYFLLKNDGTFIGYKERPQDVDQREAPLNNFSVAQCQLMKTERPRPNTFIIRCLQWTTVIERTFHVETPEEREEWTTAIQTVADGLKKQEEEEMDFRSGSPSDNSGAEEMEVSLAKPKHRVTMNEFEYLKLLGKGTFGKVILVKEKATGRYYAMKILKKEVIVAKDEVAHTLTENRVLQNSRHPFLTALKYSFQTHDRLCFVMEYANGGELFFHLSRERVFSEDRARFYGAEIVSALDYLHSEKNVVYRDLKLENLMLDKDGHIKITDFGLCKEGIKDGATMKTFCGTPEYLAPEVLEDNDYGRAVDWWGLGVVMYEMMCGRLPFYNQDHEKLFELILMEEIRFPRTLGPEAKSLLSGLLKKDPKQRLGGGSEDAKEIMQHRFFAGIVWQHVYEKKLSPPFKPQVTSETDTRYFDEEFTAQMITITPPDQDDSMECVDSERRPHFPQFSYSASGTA
# Sequence of YES/YES1 (P07947 whole entry): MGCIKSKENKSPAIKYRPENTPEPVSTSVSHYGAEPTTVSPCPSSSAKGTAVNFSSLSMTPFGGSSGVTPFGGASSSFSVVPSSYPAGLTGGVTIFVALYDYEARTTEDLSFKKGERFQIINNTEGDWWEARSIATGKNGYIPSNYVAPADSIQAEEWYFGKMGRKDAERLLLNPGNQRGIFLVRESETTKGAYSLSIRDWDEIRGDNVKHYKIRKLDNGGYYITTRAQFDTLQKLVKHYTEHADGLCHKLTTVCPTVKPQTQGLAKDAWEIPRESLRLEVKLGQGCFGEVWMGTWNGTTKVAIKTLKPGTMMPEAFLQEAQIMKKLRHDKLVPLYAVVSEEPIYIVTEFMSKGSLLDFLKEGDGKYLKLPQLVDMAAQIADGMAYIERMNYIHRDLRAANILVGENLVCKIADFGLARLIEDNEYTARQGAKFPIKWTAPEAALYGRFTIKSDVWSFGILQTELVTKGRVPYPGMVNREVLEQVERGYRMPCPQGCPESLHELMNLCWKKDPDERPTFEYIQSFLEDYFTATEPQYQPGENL
smiles,measurement,setting,value
CN(C)CC(O)CNC(=O)c1ccc(C#Cc2c(N)ncc3ccc(Cl)cc23)cc1 (centres unmarked) [HSM1702],Percentage kinase inhibition AKT1,AKT1,13%
same,Percentage kinase inhibition ALK,ALK,7%
same,Percentage kinase inhibition AXL,AXL,0%
same,Percentage kinase inhibition BRAF,BRAF,3%
same,Percentage kinase inhibition BTK,BTK,5%
same,Percentage kinase inhibition EGFR,EGFR,0%
same,Percentage kinase inhibition EPHA5,EPHA5,4%
same,Percentage kinase inhibition EPHB2,EPHB2,5%
same,Percentage kinase inhibition ERBB2/HER2,ERBB2/HER2,0%
same,Percentage kinase inhibition FGFR1,FGFR1,11%
same,Percentage kinase inhibition FGR,FGR,6%
same,Percentage kinase inhibition FLT1/VEGFR1,FLT1/VEGFR1,0%
same,% inhibition of FLT3 activity,FLT3; 500 nM compound,66%
same,Percentage kinase inhibition FLT4/VEGFR3,FLT4/VEGFR3,10%
same,Percentage kinase inhibition KDR/VEGFR2,KDR/VEGFR2,9%
same,Percentage kinase inhibition PDGFRa,PDGFRa,48%
same,Percentage kinase inhibition PKCa,PKCa,3%
same,Percentage kinase inhibition ROS/ROS1,ROS/ROS1,15%
same,Percentage kinase inhibition TIE2/TEK,TIE2/TEK,8%
same,Percentage kinase inhibition TRKB,TRKB,40%
same,Percentage kinase inhibition YES/YES1,YES/YES1,13%
same,Percentage kinase inhibition c-MER,c-MER,6%
same,Percentage kinase inhibition c-Met,c-Met,4%
same,IC50,MOLM14,102 ± 11 nM
"Cc1ccc(C(=O)Nc2ccc(CN3CCN(C)CC3)c(C(F)(F)F)c2)cc1C#Cc1cnc(N)c2ncccc12 [HSN356, 3-((8-amino-1,7-naphthyridin-5-yl)ethynyl)-4-methyl-N-(4-((4-methylpiperazin-1-yl)methyl)-3-(trifluoromethyl)phenyl)benzamide]",inhibition at 0.5 µM,AKT1,0%
same,inhibition at 0.5 µM,ALK,0%
same,inhibition at 0.5 µM,AXL,4%
same,inhibition at 0.5 µM,BRAF,100%
same,inhibition at 0.5 µM,BTK,65%
same,inhibition at 0.5 µM,EGFR,59%
same,inhibition at 0.5 µM,EPHA5,96%
same,inhibition at 0.5 µM,EPHB2,100%
same,inhibition at 0.5 µM,ERBB2/HER2,64%
same,inhibition at 0.5 µM,FGFR1,96%
same,inhibition at 0.5 µM,FGR,99%
same,inhibition at 0.5 µM,FLT1/VEGFR1,94%
same,% inhibition of FLT3 activity,FLT3,99%
same,inhibition at 0.5 µM,FLT3,98%
same,inhibition at 0.5 µM,FLT4/VEGFR3,94%
same,inhibition at 0.5 µM,KDR/VEGFR2,97%
same,inhibition at 0.5 µM,PDGFRa,92%
same,inhibition at 0.5 µM,PKCa,0%
same,inhibition at 0.5 µM,ROS/ROS1,0%
same,inhibition at 0.5 µM,TIE2/TEK,100%
same,inhibition at 0.5 µM,TRKB,75%
same,inhibition at 0.5 µM,YES/YES1,100%
same,inhibition at 0.5 µM,c-MER,0%
same,inhibition at 0.5 µM,c-Met,15%
same,"proliferation inhibition in words, MOLM-14",MOLM14,potent proliferation inhibitors
same,IC50,"MOLM14; Homo sapiens, MOLM-14",0.62 ± 0.02 nM
Cc1ccc(C(=O)Nc2ccc(CN3CCN(C)CC3)c(C(F)(F)F)c2)cc1C#Cc1cc(N)nc2ccccc12 [HSN285],inhibition at 0.5 µM,AKT1,0%
same,inhibition at 0.5 µM,ALK,1%
same,inhibition at 0.5 µM,AXL,0%
same,inhibition at 0.5 µM,BRAF,64%
same,inhibition at 0.5 µM,BTK,0%
same,inhibition at 0.5 µM,EGFR,0%
same,inhibition at 0.5 µM,EPHA5,0%
same,inhibition at 0.5 µM,EPHB2,3%
same,inhibition at 0.5 µM,ERBB2/HER2,0%
same,inhibition at 0.5 µM,FGFR1,0%
same,inhibition at 0.5 µM,FGR,0%
same,inhibition at 0.5 µM,FLT1/VEGFR1,3%
same,inhibition at 0.5 µM,FLT3; 500 nM compound,28%
same,inhibition at 0.5 µM,FLT4/VEGFR3,6%
same,inhibition at 0.5 µM,KDR/VEGFR2,15%
same,inhibition at 0.5 µM,PDGFRa,30%
same,inhibition at 0.5 µM,PKCa,6%
same,inhibition at 0.5 µM,ROS/ROS1,0%
same,inhibition at 0.5 µM,TIE2/TEK,0%
same,inhibition at 0.5 µM,TRKB,0%
same,inhibition at 0.5 µM,YES/YES1,0%
same,inhibition at 0.5 µM,c-MER,3%
same,inhibition at 0.5 µM,c-Met,23%
same,IC50,"MOLM14; Homo sapiens, MOLM-14",415 ± 6.9 nM

# — US20250084039A1, “4-SUBSTITUTED AMINOISOQUINOLINE DERIVATIVES” (Purdue Research Foundation, priority 2016, published 2025)
